Consider one molecule from ChEMBL document CHEMBL5143570, “Development of naringenin-O-carbamate derivatives as multi-target-directed liagnds for the treatment of Alzheimer's disease” (Bioorg Med Chem Lett, 2022).

Broadly, the IC50 is the midpoint of a concentration-inhibition curve. The low end stands for inhibition by little substance, the high end for a need for much substance. What is called inhibition is the drop in the measured response relative to a control, in per cent. A higher inhibition goes with strong suppression. What is called Papp is the rate of passage across a membrane or cell layer, normalised by area and donor concentration. Lower therefore signals poor permeation.

Series [1] in a line: Antioxidant activity assessed as trolox equivalent of ORAC radical scavenging activity by ORAC-FL assay. The series is classed as functional.
The target in series [2] is Acetylcholinesterase (Homo sapiens, UniProt P22303). The series is described as follows: Inhibition of human erythrocyte AChE using acetylthiocholine as substrate incubated for 15 mins by DTNB reagent based Ellman's method. In kind it is cell-based. For orientation: Ellman's reagent forms a yellow product with free thiols.
Series [3] addresses Amyloid-beta precursor protein (Homo sapiens) (UniProt P05067). The series is described as follows: Inhibition of amyloid beta (1 to 42 ) (unknown origin) self-induced aggregation at 25 uM by thioflavin-T fluorescence method relative to control.
A short description of series [4]: Effect on tau protein expression in pRK5-GFP-Tau plasmid transfected mouse HT-22 cells assessed as reduction in fluorescence intensity at 10 uM incubated for 24 hrs by fluorescence microscopic analysis (reference value: 36.8). The series is classed as functional.
In series [5] the test system is HT-22. The series can be described thus: Effect on tau protein expression in pRK5-GFP-Tau plasmid transfected mouse HT-22 cells assessed as fluorescence intensity by measuring decrease in GFP level incubated for 24 hrs by western blot analysis. In kind it is functional, cell-based. The conditions noted are these: dose 5-20 µM, DDE = dose-dependent effect. (In general: In western blotting, separated proteins are transferred to a membrane and probed.)

Series [6] is described as follows: Effect on tau protein expression in pRK5-GFP-Tau P301L plasmid transfected mouse HT-22 cells assessed as reduction in fluorescence intensity at 10 uM by fluorescence microscopic analysis (reference value: 35.0). The series is classed as functional.
A short description of series [7]: Effect on APP protein expression in pEGFP-N1-APP plasmid transfected mouse HT-22 cells assessed as decrease in fluorescence intensity at 5 uM incubated for 24 hrs by fluorescence microscopic analysis (reference value: 30.7). The series is classed as functional.
A short description of series [8]: Effect on APP protein expression in pEGFP-N1-APP plasmid transfected mouse HT-22 cells assessed as decrease in fluorescence intensity at 20 uM incubated for 24 hrs by fluorescence microscopic analysis (reference value: 30.7). In kind it is functional.
The test system of series [9] is PC-12. The series can be described thus: Neuroprotective activity against H2O2-induced cytotoxicity in rat PC-12 cells assessed as increase in cell viability at 10 uM by MTT assay relative to control. The series is classed as functional. Background: Tetrazolium assays rely on reduction of a dye to a coloured formazan, in cell work by metabolically active cells.
The subject of series [10] is L02. The series is described as follows: Cytotoxicity against human L02 cells assessed as decrease in cell viability measured upto 20 uM by MTT assay. In kind it is toxicity, cell-based. The conditions noted are these: l02, 20 µM.
Series [11] has as its system L02. The series is described as follows: Hepatoprotective activity against H2O2-induced cytotoxicity in human L02 cells assessed as increase in cell viability at 20 uM by MTT assay. In kind it is functional.
The nature of series [12]: Permeability of compound at 100 ug/mL by PAMPA-BBB assay.

Acetylcholinesterase, sequence (P22303 whole entry): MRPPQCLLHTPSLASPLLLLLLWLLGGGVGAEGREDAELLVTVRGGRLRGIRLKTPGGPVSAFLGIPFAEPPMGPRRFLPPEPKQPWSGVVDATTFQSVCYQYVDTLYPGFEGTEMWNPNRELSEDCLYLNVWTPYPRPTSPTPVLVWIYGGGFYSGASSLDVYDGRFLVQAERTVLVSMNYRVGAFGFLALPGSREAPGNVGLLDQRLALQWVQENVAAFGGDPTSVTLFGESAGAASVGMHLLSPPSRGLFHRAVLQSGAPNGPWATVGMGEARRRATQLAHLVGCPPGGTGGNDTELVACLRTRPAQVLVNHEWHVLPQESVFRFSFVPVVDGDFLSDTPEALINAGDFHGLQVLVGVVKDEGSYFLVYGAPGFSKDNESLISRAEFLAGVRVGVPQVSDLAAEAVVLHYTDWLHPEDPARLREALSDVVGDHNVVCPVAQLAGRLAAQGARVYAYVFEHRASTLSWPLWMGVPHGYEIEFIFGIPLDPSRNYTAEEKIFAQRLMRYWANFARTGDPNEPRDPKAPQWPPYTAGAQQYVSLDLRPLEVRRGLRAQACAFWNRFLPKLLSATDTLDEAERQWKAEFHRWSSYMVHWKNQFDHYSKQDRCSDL
Amyloid-beta precursor protein (Homo sapiens), sequence (P05067 whole entry): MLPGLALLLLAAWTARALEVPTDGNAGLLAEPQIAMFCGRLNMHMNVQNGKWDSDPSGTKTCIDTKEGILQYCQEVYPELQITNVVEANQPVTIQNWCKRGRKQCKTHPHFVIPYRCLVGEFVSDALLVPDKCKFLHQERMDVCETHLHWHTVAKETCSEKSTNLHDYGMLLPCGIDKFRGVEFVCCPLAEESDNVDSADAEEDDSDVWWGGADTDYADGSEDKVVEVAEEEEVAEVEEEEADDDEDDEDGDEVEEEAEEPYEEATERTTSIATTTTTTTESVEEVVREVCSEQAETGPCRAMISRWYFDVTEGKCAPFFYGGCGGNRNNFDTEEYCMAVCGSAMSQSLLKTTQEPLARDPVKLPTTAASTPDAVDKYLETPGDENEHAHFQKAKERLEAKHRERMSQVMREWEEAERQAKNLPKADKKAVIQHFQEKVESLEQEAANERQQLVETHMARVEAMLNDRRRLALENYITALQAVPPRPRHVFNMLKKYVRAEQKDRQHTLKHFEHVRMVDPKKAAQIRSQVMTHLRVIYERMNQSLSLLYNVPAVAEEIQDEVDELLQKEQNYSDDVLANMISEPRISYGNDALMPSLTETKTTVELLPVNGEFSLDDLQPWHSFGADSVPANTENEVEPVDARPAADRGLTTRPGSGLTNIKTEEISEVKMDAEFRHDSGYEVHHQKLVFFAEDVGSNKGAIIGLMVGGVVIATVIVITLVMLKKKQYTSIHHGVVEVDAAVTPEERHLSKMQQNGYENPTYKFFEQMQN

Turning to `CCN(C)C(=O)Oc1ccc(C2CC(=O)c3c(O)cc(OC(=O)N(C)CC)cc3O2)cc1` (configuration not stated), the Activity is 1 in series [1]; “Dde” in series [5]; 70.2% in [9]; “Non-Toxic” in [10]; 77.3% in [11]. Besides, half-maximal inhibition in series [2] (IC50) required 9.7 µM. Further, the inhibition in [3] is 60.9%. Further, the Flu intensity in [4] stood at 19; in series [6], 9.28; in series [7], 21.9; in series [8] it was 15.5. Also, the Papp at 100 ug/mL in [12] worked out at 16.8 ×10⁻⁶ cm/s.
